Experimental data reported in PubChem BioAssay (NCI).
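These data come from cells grown in 96-well plates and exposed to compound for 48 hours at five concentrations. GI50 is the concentration that inhibits growth by half. Definition used: TGI = concentration required for complete inhibition of growth.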

How the values were obtained:
Assay in all cases: NCI tumour cell line growth inhibition, 48 h
ACHN renal = tested on: ACHN renal
BT-549 breast = tested on: BT-549 breast
EKVX NSCLC = tested on: EKVX NSCLC
HL-60(TB) leukemia = tested on: HL-60(TB) leukemia
HOP-62 NSCLC = tested on: HOP-62 NSCLC
MOLT-4 leukemia = tested on: MOLT-4 leukemia
NCI-H226 lung = tested on: NCI-H226 lung
NCI-H460 lung = tested on: NCI-H460 lung
NCI-H522 lung = tested on: NCI-H522 lung
SK-MEL-5 melanoma = tested on: SK-MEL-5 melanoma

Compound	GI50 (ACHN renal) [µM]	TGI (ACHN renal) [µM]	GI50 (BT-549 breast) [µM]	TGI (BT-549 breast) [µM]	GI50 (EKVX NSCLC) [µM]	TGI (EKVX NSCLC) [µM]	GI50 (HL-60(TB) leukemia) [µM]	TGI (HL-60(TB) leukemia) [µM]	GI50 (HOP-62 NSCLC) [µM]	TGI (HOP-62 NSCLC) [µM]	GI50 (MOLT-4 leukemia) [µM]	TGI (MOLT-4 leukemia) [µM]	GI50 (NCI-H226 lung) [µM]	TGI (NCI-H226 lung) [µM]	GI50 (NCI-H460 lung) [µM]	TGI (NCI-H460 lung) [µM]	GI50 (NCI-H522 lung) [µM]	TGI (NCI-H522 lung) [µM]	GI50 (SK-MEL-5 melanoma) [µM]	TGI (SK-MEL-5 melanoma) [µM]
C#CCSc1nnnn1-c1ccc(Br)c(C)c1	33.1	> 100	48.7	> 100	4.86	97.3	27.3	87	64.3	> 100	23.3	> 100	26.4	> 100	31.5	> 100	19.1	79.4	16.5	33.9
Cn1cc(-c2nonc2-c2cn(C)c3ccc(Br)cc23)c2ccccc21	4.29	> 100	6.17	> 100	3.82	> 100	2.95	> 100	5.51	> 100	–	–	4.61	> 100	3.31	> 100	3.01	> 100	3.37	> 100
OCCC#Cc1ccccc1C#Cc1ccccc1	17.2	36.4	8.98	22.3	11.3	24.3	–	–	18.7	33.9	9.84	51.9	15.2	33.2	21.5	50.7	32.1	> 100	12	25.3
COc1cc(-c2cn(-c3ccc(Cl)cc3)c(=O)n2-c2ccccc2)cc(OC)c1OC	34.8	> 100	> 92.1	> 100	> 100	> 100	3.35	> 38.5	> 85.3	> 100	59.6	> 100	82.1	> 100	> 80.9	> 100	45.1	> 100	25.3	> 100
COc1ccc2c(c1)C(=O)/C(=C/c1ccc(OCC(=O)c3ccc(Cl)cc3)cc1)O2	15.9	30.5	18.4	59.1	25.6	> 100	2.89	16.9	43.8	> 100	3.03	12.8	12.2	37.1	29.7	> 100	3.77	15.7	17.2	59.3
CCOC(=O)/C(=C/c1c(-c2ccccc2)[nH]c2ccccc12)C(=O)c1ccc(Cl)cc1	3.62	> 100	8.82	> 100	3.73	> 100	1.99	7.59	4.59	> 100	2.57	8.21	5.6	> 100	3.03	10.3	5.86	> 100	1.78	4.1
